Source: patent US20060229433A1, “Modified antiviral peptides with increased activity and cell membrane affinity” (priority 2003, published 2006)
Where “and” joins values, the source holds several entries; their conditions need not be identical. Equal values may be shown once. Peptide text beside a SMILES is read from it.

Tests used:
Type in all cases: cell-based
HIV-1 NDK = test: HIV-1 infection of C8166 cells (syncytia formation, p24 ELISA) with HIV-1 NDK; design: key to syncitia formed, Day 4 / syncitia formed, Day 5 / syncitia formed, Day 6 / syncitia formed, Day 7: ++, +, (+), (+)− and − represent decreasing numbers of syncitia formed; ++, +, (+), (+)− and − represent decreasing numbers of syncitia formed; ++, +, (+), (+)− and − represent decreasing numbers of syncitia formed; ++, +, (+), (+)− and − represent decreasing numbers of syncitia formed; ++, +, (+), (+)− and − represent decreasing numbers of syncitia formed; details: for P 24: P 24 after Day 7
Method in brief: (§1)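 Infection was read out as syncytia and as cell-free p24 in supernatants (ELISA) from C8166 cells that received HIV-1 (1000 TCID50/ml, 1 h, 37 °C) after a 1 h peptide pretreatment. Peptide stayed on before, during and after adsorption. Toxicity was checked by daily trypan-blue counts.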

HIV-1 NL 4-3 [1] = test: HIV-1 infection of C8166 cells (syncytia formation, p24 ELISA) with HIV-1 NL 4-3; design: key: ++, +, (+), (+)− and − represent decreasing numbers of syncitia formed; ++, +, (+), (+)− and − represent decreasing numbers of syncitia formed; ++, +, (+), (+)− and − represent decreasing numbers of syncitia formed; ++, +, (+), (+)− and − represent decreasing numbers of syncitia formed; ++, +, (+), (+)− and − represent decreasing numbers of syncitia formed; details: Table 6
Method in brief: as §1

HIV-1 NL 4-3 [2] = test: as above; design: key to syncitia formed, Day 4 / syncitia formed, Day 5 / syncitia formed, Day 6 / syncitia formed, Day 7: ++, +, (+), (+)− and − represent decreasing numbers of syncitia formed; ++, +, (+), (+)− and − represent decreasing numbers of syncitia formed; ++, +, (+), (+)− and − represent decreasing numbers of syncitia formed; ++, +, (+), (+)− and − represent decreasing numbers of syncitia formed; ++, +, (+), (+)− and − represent decreasing numbers of syncitia formed
Method in brief: as §1

[3] = C8166 cells, HIV-1 subtype B NL 4-3, Table 9, two lines = tested twice, 8 days apart

`N=C(N)NCCC[C@H](NC(=O)CNC(=O)[C@@H]1CCCN1C(=O)CN)C(=O)O` [GPGR, reference compound] (H-GPGR-OH; N-terminus and C-terminus assumed) was tested, and the “syncitia formed, Day 4” value (HIV-1 NDK; 0.005 μM) was “−”, the “syncitia formed, Day 5” value (HIV-1 NDK; 0.005 μM) was “+” and the “syncitia formed, Day 6” value (HIV-1 NDK; 0.005 μM) was “++”. The “syncitia formed, Day 7” value (HIV-1 NDK; 0.005 μM) was “++/T”, the “P 24” value (HIV-1 NDK; 0.005 μM) was 23810 pg/mL and the “syncitia formed, Day 4” value (HIV-1 NDK; 0.01 μM) was “−”. For the same compound, the “syncitia formed, Day 5” value (HIV-1 NDK; 0.01 μM) was “+”, the “syncitia formed, Day 6” value (HIV-1 NDK; 0.01 μM) was “++” and the “syncitia formed, Day 7” value (HIV-1 NDK; 0.01 μM) was “++”. The “P 24” value (HIV-1 NDK; 0.01 μM) was 23810 pg/mL, the “syncitia formed, Day 4” value (HIV-1 NDK; 0.05 μM) was “−” and the “syncitia formed, Day 5” value (HIV-1 NDK; 0.05 μM) was “+”. The “syncitia formed, Day 6” value (HIV-1 NDK; 0.05 μM) was “++”, the “syncitia formed, Day 7” value (HIV-1 NDK; 0.05 μM) was “++” and the “P 24” value (HIV-1 NDK; 0.05 μM) was 23810 pg/mL. For the same compound, the “syncitia formed, Day 4” value (HIV-1 NDK; 0.1 μM) was “−”, the “syncitia formed, Day 5” value (HIV-1 NDK; 0.1 μM) was “(+)” and the “syncitia formed, Day 6” value (HIV-1 NDK; 0.1 μM) was “++”. The “syncitia formed, Day 7” value (HIV-1 NDK; 0.1 μM) was “++”, the “P 24” value (HIV-1 NDK; 0.1 μM) was 21810 pg/mL and 23870 pg/mL and the “syncitia formed, Day 4” value (HIV-1 NDK; 0.5 μM) was “−”. The “syncitia formed, Day 5” value (HIV-1 NDK; 0.5 μM) was “(+)”, the “syncitia formed, Day 6” value (HIV-1 NDK; 0.5 μM) was “++” and the “syncitia formed, Day 7” value (HIV-1 NDK; 0.5 μM) was “++”. For the same compound, the “P 24” value (HIV-1 NDK; 0.5 μM) was 9810 pg/mL and 15856 pg/mL, the “syncitia formed, Day 4” value (HIV-1 NDK; 1 μM) was “−” and the “syncitia formed, Day 5” value (HIV-1 NDK; 1 μM) was “−”. The “syncitia formed, Day 6” value (HIV-1 NDK; 1 μM) was “+”, the “syncitia formed, Day 7” value (HIV-1 NDK; 1 μM) was “++” and the “P 24” value (HIV-1 NDK; 1 μM) was 9870 pg/mL and 13890 pg/mL. The “syncitia formed, Day 4” value (HIV-1 NDK; 5 μM) was “−”, the “syncitia formed, Day 5” value (HIV-1 NDK; 5 μM) was “−” and the “syncitia formed, Day 6” value (HIV-1 NDK; 5 μM) was “+”. The “syncitia formed, Day 7” value (HIV-1 NDK; 5 μM) was “++”, the IC50 (HIV-1 NDK; HIV 1 NDK, Table 10) was 500 nM and the IC100 (HIV-1 NDK; HIV 1 NDK, Table 10) was over 5 µM. For the same compound, the “Day 4 syncitia formed” value (HIV-1 NL 4-3 [1]; 0.005 μM) was “−”, the “Day 5 syncitia formed” value (HIV-1 NL 4-3 [1]; 0.005 μM) was “++” and the “Day 6 syncitia formed” value (HIV-1 NL 4-3 [1]; 0.005 μM) was “++”. The “Day 4 syncitia formed” value (HIV-1 NL 4-3 [1]; 0.01 μM) was “−”, the “Day 5 syncitia formed” value (HIV-1 NL 4-3 [1]; 0.01 μM) was “+” and the “Day 6 syncitia formed” value (HIV-1 NL 4-3 [1]; 0.01 μM) was “++”. The “Day 7 syncitia formed” value (HIV-1 NL 4-3 [1]; 0.01 μM) was “++”, the “Day 4 syncitia formed” value (HIV-1 NL 4-3 [1]; 0.05 μM) was “−” and the “Day 5 syncitia formed” value (HIV-1 NL 4-3 [1]; 0.05 μM) was “+”. The “Day 6 syncitia formed” value (HIV-1 NL 4-3 [1]; 0.05 μM) was “+”, the “Day 7 syncitia formed” value (HIV-1 NL 4-3 [1]; 0.05 μM) was “++” and the “Day 4 syncitia formed” value (HIV-1 NL 4-3 [1]; 0.1 μM) was “−”. The “Day 5 syncitia formed” value (HIV-1 NL 4-3 [1]; 0.1 μM) was “(+)”, the “Day 6 syncitia formed” value (HIV-1 NL 4-3 [1]; 0.1 μM) was “+” and the “Day 7 syncitia formed” value (HIV-1 NL 4-3 [1]; 0.1 μM) was “+”. For the same compound, the “Day 4 syncitia formed” value (HIV-1 NL 4-3 [1]; 0.5 μM) was “−”, the “Day 5 syncitia formed” value (HIV-1 NL 4-3 [1]; 0.5 μM) was “−” and the “Day 6 syncitia formed” value (HIV-1 NL 4-3 [1]; 0.5 μM) was “−”. For the same compound, the “Day 7 syncitia formed” value (HIV-1 NL 4-3 [1]; 0.5 μM) was “+”, the “Day 4 syncitia formed” value (HIV-1 NL 4-3 [1]; 1 μM) was “−” and the “Day 5 syncitia formed” value (HIV-1 NL 4-3 [1]; 1 μM) was “−”. For the same compound, the “Day 6 syncitia formed” value (HIV-1 NL 4-3 [1]; 1 μM) was “−”, the “Day 7 syncitia formed” value (HIV-1 NL 4-3 [1]; 1 μM) was “+” and the “Day 4 syncitia formed” value (HIV-1 NL 4-3 [1]; 5 μM) was “−”. The “Day 5 syncitia formed” value (HIV-1 NL 4-3 [1]; 5 μM) was “−”, the “Day 6 syncitia formed” value (HIV-1 NL 4-3 [1]; 5 μM) was “−” and the “Day 7 syncitia formed” value (HIV-1 NL 4-3 [1]; 5 μM) was “−”. The “Day 7 syncitia formed” value (HIV-1 NL 4-3 [2]; 0.005 μM, Table 6) was “++/T”, the “syncitia formed, Day 4” value (HIV-1 NL 4-3 [2]; 0.01 μM, C8166 cells) was “(+)” and the “syncitia formed, Day 5” value (HIV-1 NL 4-3 [2]; 0.01 μM, C8166 cells) was “+”. The “syncitia formed, Day 6” value (HIV-1 NL 4-3 [2]; 0.01 μM, C8166 cells) was “++”, the “syncitia formed, Day 7” value (HIV-1 NL 4-3 [2]; 0.01 μM, Day 7, C8166 cells) was “++” and the “P 24” value (HIV-1 NL 4-3 [2]; 0.01 μM, P 24 after Day 7, C8166 cells) was 23810 pg/mL. For the same compound, the “syncitia formed, Day 4” value (HIV-1 NL 4-3 [2]; 0.05 μM, C8166 cells) was “(+)”, the “syncitia formed, Day 5” value (HIV-1 NL 4-3 [2]; 0.05 μM, C8166 cells) was “+” and the “syncitia formed, Day 6” value (HIV-1 NL 4-3 [2]; 0.05 μM, C8166 cells) was “+”. For the same compound, the “syncitia formed, Day 7” value (HIV-1 NL 4-3 [2]; 0.05 μM, Day 7, C8166 cells) was “++”, the “P 24” value (HIV-1 NL 4-3 [2]; 0.05 μM, P 24 after Day 7, C8166 cells) was 13810 pg/mL and 12980 pg/mL and the “syncitia formed, Day 4” value (HIV-1 NL 4-3 [2]; 0.1 μM, C8166 cells) was “−”. The “syncitia formed, Day 5” value (HIV-1 NL 4-3 [2]; 0.1 μM, C8166 cells) was “(+)”, the “syncitia formed, Day 6” value (HIV-1 NL 4-3 [2]; 0.1 μM, C8166 cells) was “+” and the “syncitia formed, Day 7” value (HIV-1 NL 4-3 [2]; 0.1 μM, Day 7, C8166 cells) was “+”. For the same compound, the “syncitia formed, Day 4” value (HIV-1 NL 4-3 [2]; 0.5 μM, C8166 cells) was “−”, the “syncitia formed, Day 5” value (HIV-1 NL 4-3 [2]; 0.5 μM, C8166 cells) was “−” and the “syncitia formed, Day 6” value (HIV-1 NL 4-3 [2]; 0.5 μM, C8166 cells) was “−”. The “syncitia formed, Day 7” value (HIV-1 NL 4-3 [2]; 0.5 μM, Day 7, C8166 cells) was “+”, the “P 24” value (HIV-1 NL 4-3 [2]; 0.5 μM, P 24 after Day 7, C8166 cells) was 23000 pg/mL and 15810 pg/mL and the “syncitia formed, Day 4” value (HIV-1 NL 4-3 [2]; 1 μM, C8166 cells) was “−”. The “syncitia formed, Day 5” value (HIV-1 NL 4-3 [2]; 1 μM, C8166 cells) was “−”, the “syncitia formed, Day 6” value (HIV-1 NL 4-3 [2]; 1 μM, C8166 cells) was “−” and the “syncitia formed, Day 7” value (HIV-1 NL 4-3 [2]; 1 μM, Day 7, C8166 cells) was “(+)”. The “P 24” value (HIV-1 NL 4-3 [2]; 1 μM, P 24 after Day 7, C8166 cells) was 316 pg/mL and 343 pg/mL, the “syncitia formed, Day 4” value (HIV-1 NL 4-3 [2]; 5 μM, C8166 cells) was “−” and the “syncitia formed, Day 5” value (HIV-1 NL 4-3 [2]; 5 μM, C8166 cells) was “−”. The “syncitia formed, Day 6” value (HIV-1 NL 4-3 [2]; 5 μM, C8166 cells) was “−”, the “syncitia formed, Day 7” value (HIV-1 NL 4-3 [2]; 5 μM, Day 7, C8166 cells) was “(+)” and the “P 24” value (HIV-1 NL 4-3 [2]; 5 μM, P 24 after Day 7, C8166 cells) was 152 pg/mL. The IC50 (HIV-1 NL 4-3 [2]; [3]) was 60 nM and 100 nM, the IC100 (HIV-1 NL 4-3 [2]; [3]) was 5 µM and >5 µM and the “P 24” value (HIV-1 NL 4-3 [2]; Day 7, 0.005 μM, Table 6) was 23810 pg/mL. For the same compound, the “P 24” value (HIV-1 NL 4-3 [2]; Day 7, 0.01 μM, Table 6) was 23810 pg/mL, the “P 24” value (HIV-1 NL 4-3 [2]; Day 7, 0.1 μM, Table 6) was 5810 pg/mL and 10110 pg/mL and the “P 24” value (HIV-1 NL 4-3 [2]; Day 7, 0.5 μM, Table 6) was 2507 pg/mL and 2840 pg/mL.
